The results in this text go back to patent US20150086490A1, “ORAL CARE COMPOSITIONS AND METHODS” (Colgate-Palmolive Company, priority 2009, published 2015).

This test concerns MMP-13 gene expression. Description: PTH stimulated MMP-13 gene expression in UMR 106-01 cells, real time quantitative RT-PCR. It is filed as cell-based, rat. As to conditions: for effect on PTH stimulated MMP-13 gene expression (in words): summary of the table's results. The method, then: Parathyroid hormone (PTH) stimulates the transcription of MMP-13. The experimental method utilizes PTH to stimulate MMP-13 transcription in UMR 106-01 cells, which are cells derived from a rat osteoblastic cell line. The UMR 106-01 cell line provides useful model system for studying effects of PTH on osteoblasts in vitro. See, e.g., Qin, L. et al. Journal of Biological Chemistry, 278(22), 19723 (2003).
The UMR 106-01 cells were cultured in Eagle's minimal essential medium (EMEM) supplemented with 25 mM Hepes 7.4, 1% nonessential amino acids, 100 units/ml penicillin, 100 μg/ml streptomycin and 5% fetal bovine serum.
UMR 106-01 cells were seeded in 12-well plates and cultured for 2-3 days in cell culture media. When cells were confluent, the cell culture media was changed to 1% fetal bovine serum (not 5% fetal bovine sertn) for overnight cell starvation. The cells were preincubated with active ingredient for 15 min and then incubated with PTH (10^−8 M) for 4 hours.
Total RNA from UMR 106-01 cells stimulated with or without PTH was isolated with TRIzol reagent. Total RNA (0.1 μg) was reverse-transcribed to cDNA with the Invitrogen Superscript kit according to the manufacturer's instructions. PCR was performed on cDNA using primers, and the sequences used are listed below. All were amplified by adding 2.5 μl of cDNA to the PCR mixture (22.5 μl) containing each primer (0.2 μM) and 12.5 μl of the Platinum SYBR Green qPCR SuperMix UDG (Invitrogen). The reactions were pre-incubated at 50° C. for 2 minutes for decontamination of dU-containing DNA by UDG, then at 95° C. for 2 minutes to inactivate UDG and activate Taq. The PCR program continued for 49 cycles of denaturation at 95° C. for 15 seconds, annealing and elongation of the primers at 60° C. for 30 seconds. Relative quantification of gene expression was determined by using the 2-delta delta CT method where fold changes in gene expression are relative to control samples. All samples were normalized to β-actin.

Setting [1] is: PTH (10^−8 M, 4 hours) + active 10 ppm (15 min preincubation).
The mark [2] stands for this setting: active alone (no PTH), 10 ppm in simple solution.

Molecules are shown by their SMILES.

With `CC(=O)O[C@@H]1CC[C@@]2(C)[C@@H](CC[C@]3(C)[C@@H]2C(=O)C=C2[C@@H]4[C@@H](C)[C@H](C)CC[C@]4(C)CC[C@]23C)[C@@]1(C)C(=O)O` [AKBBA, Acetyl keto β-boswellic acid], the “effect on PTH stimulated MMP-13 gene expression (in words)” value (shortened to “effect”) is “decreases the expression”. The “fold change in MMP-13 gene expression relative to the control sample, Average” value under setting [1] came to 59.77 fold. The “fold change in MMP-13 gene expression relative to the control sample, Average” value under setting [2] is on record as 1.45 fold.
For the compound `CC1CCC(C(C)C)C(OC(=O)Nc2ccccc2O)C1` (centres unmarked) [Compound A, 2-isopropyl-5-methylcyclohexyl 2-hydroxyphenylcarbantate], the “effect” value is recorded as “decreases the expression”. Moreover, the “fold change in MMP-13 gene expression relative to the control sample, Average” value (PTH (10^−8 M, 4 hours) + active 7 ppm (15 min preincubation)) was 14.674 fold. For the same compound, under “active alone (no PTH), 7 ppm in simple solution”, the “fold change in MMP-13 gene expression relative to the control sample, Average” value was 7.41 fold.
With `CC(=O)Nc1ccc(OC(=O)OC2CC(C)CCC2C(C)C)cc1` (centres unmarked) [Compound B, 4-acetamidophenyl 2-isopropyl-5-methylcyclohexyl carbonate], the “effect” value is “decreases the expression”. Also, the “fold change in MMP-13 gene expression relative to the control sample, Average” value under setting [1] stood at 49.86 fold. For the same compound, the “fold change in MMP-13 gene expression relative to the control sample, Average” value under setting [2] came out at 5.78 fold.
For the compound `Oc1ccc(C=Cc2cc(O)cc(O)c2)cc1` [Resveratrol, 3,5,4′-trihydroxystilbene], the “effect” value is “decreases the expression”. The “fold change in MMP-13 gene expression relative to the control sample, Average” value (PTH (10^−8 M, 4 hours) + active 0.1 ppm (15 min preincubation)) is 46.02 fold. Moreover, the “fold change in MMP-13 gene expression relative to the control sample, Average” value (PTH (10^−8 M, 4 hours) + active 1 ppm (15 min preincubation)) amounted to 19.97 fold. Under setting [1], the “fold change in MMP-13 gene expression relative to the control sample, Average” value was found to be 1.86 fold. Further, the “fold change in MMP-13 gene expression relative to the control sample, Average” value (PTH (10^−8 M, 4 hours) + active 50 ppm (15 min preincubation)) was determined as 0.91 fold. Besides, where the note is “PTH (10^−8 M, 4 hours) + active 100 ppm (15 min preincubation)”, the “fold change in MMP-13 gene expression relative to the control sample, Average” value is reported as 0.65 fold. In addition, the “fold change in MMP-13 gene expression relative to the control sample, Average” value (active alone (no PTH), 0.1 ppm in simple solution) stood at 1.07 fold. The “fold change in MMP-13 gene expression relative to the control sample, Average” value (active alone (no PTH), 1 ppm in simple solution) was 0.71 fold. For the same compound, under setting [2], the “fold change in MMP-13 gene expression relative to the control sample, Average” value was 0.65 fold. The “fold change in MMP-13 gene expression relative to the control sample, Average” value (active alone (no PTH), 50 ppm in simple solution) was determined as 0.38 fold. Moreover, the “fold change in MMP-13 gene expression relative to the control sample, Average” value (active alone (no PTH), 100 ppm in simple solution) was 1.09 fold.
